Target: T1, human PRMT1 (Homo sapiens, UniProt Q99873)
T1 construct: GST-tagged PRMT1; made in house; host or cells: High Five insect cells (baculovirus, pFastBacI)
Assay: PRMT1 biochemical assay (3H-SAM Flashplate, peptide substrate)
Details: read-out: PRMT1_ IC50
Summary of the method: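 FLAG-tagged full-length human PRMT1 (0.5 nM, GST-tagged, insect-cell expressed) preincubated 30 min at RT with compound, then biotinylated histone H4 36-50 peptide (20 nM) plus 200 nM 3H-SAM and 1.5 uM SAM in Bicine pH 7.6, 2% DMSO. 3H-methylated peptide captured on streptavidin Flashplate; IC50 from 3/4-parameter fit.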

T1 sequence (Q99873 with tags, fused parts or gaps): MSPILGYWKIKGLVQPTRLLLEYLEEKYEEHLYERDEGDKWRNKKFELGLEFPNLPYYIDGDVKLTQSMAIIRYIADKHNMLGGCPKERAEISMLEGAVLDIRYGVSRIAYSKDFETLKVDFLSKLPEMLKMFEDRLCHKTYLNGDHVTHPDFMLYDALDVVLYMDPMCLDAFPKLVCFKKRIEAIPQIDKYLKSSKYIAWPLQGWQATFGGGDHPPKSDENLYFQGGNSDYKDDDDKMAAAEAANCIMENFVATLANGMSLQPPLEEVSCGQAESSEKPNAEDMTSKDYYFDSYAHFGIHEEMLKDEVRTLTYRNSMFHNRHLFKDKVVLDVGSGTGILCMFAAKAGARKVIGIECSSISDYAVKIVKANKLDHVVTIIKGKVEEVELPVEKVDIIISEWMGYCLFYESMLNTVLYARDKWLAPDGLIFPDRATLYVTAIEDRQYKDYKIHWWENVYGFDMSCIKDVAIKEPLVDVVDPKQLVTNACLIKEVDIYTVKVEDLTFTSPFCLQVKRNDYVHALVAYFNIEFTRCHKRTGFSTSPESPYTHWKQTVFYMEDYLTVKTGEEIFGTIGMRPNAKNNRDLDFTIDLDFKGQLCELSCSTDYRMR

SMILES | IC50
CC(C)n1ncc2c(C(=O)N[C@@H](C)c3ccccc3)cc(-c3cccc(CN(C)CCN)c3)cc21 [Compound 10] | 48.5 nM
CNCCN(C)Cc1cccc(-c2cc(C(=O)N[C@@H](C)c3ccccc3)c3cn[nH]c3n2)c1 [Compound 12] | 59.4 nM
CC(C)n1ncc2c(C(=O)NCc3ccccc3)cc(-c3cccc(CN(C)CCN)c3)cc21 [Compound 14] | 69.2 nM
Cc1c(C(=O)NCc2ccccc2)cc(-c2cccc(CN(C)CCN)c2)c2cn[nH]c12 [Compound 15] | 69.6 nM
COc1ccc(Cn2cnc3ccc(-c4ccc(CN(C)CCN)cc4)cc32)cc1 [Compound 16] | 69.6 nM
CN(CCN)Cc1ccc(-c2ccc3ncn(-c4ccccc4)c3c2)cc1 [Compound 19] | 82.3 nM
Cc1nn(C(C)C)c2nc(-c3cccc(CN(C)CCN)c3)cc(N3CCOCC3)c12 [Compound 22, N1-(3-(1-isopropyl-3-methyl-4-morpholino-1H-pyrazolo[3,4-b]pyridin-6-yl)benzyl)-N1-methylethane-1,2-diamine] | 95.2 nM
CC(C)n1ncc2c(C(=O)N3CCc4ccccc4C3)cc(-c3cccc(CN(C)CCN)c3)nc21 [Compound 23] | 97.1 nM
CNCCN(C)Cc1cccc(-c2cc(C(=O)N(C)Cc3ccccc3)c3cnn(C(C)C)c3n2)c1 [Compound 24] | 97.4 nM
CNCCN(C)Cc1cccc(-c2ccc3ncn(C(C)C)c3c2)c1 [Compound 28] | 114 nM
CNCCN(C)Cc1cccc(-c2ccc3ncn(C4CCOCC4)c3c2)c1 [Compound 30] | 118 nM
CC(C)n1cnc2cc(-c3cccc(CN(C)CCN)c3)ccc21 [Compound 32] | 128 nM
CCn1ncc2c(C(=O)N[C@@H](C)c3ccccc3)cc(-c3cccc(CN(C)CCNC)c3)nc21 [Compound 33] | 140 nM
CNCCN(C)Cc1cccc(-c2ccc3c(c2)ncn3CCOC)c1 [Compound 34] | 145 nM
CNCCN(C)Cc1cccc(-c2ccc3cn(Cc4ccccc4)nc3n2)c1 [Compound 35] | 152 nM
CNCCN(C)Cc1cccc(-c2ccc3c(c2)ncn3C(C)C)c1 [Compound 36] | 153 nM
CNCCN(C)Cc1cccc(-c2cc(C(=O)NCc3ccccc3F)c3cnn(C(C)C)c3n2)c1 [Compound 38] | 159 nM
CNCCN(C)Cc1cccc(-c2cc(C(=O)N3CCc4ccccc4C3)c3cnn(C(C)C)c3n2)c1 [Compound 42] | 185 nM

SMILES | IC50
CNCCN(C)Cc1cccc(-c2cc(C(=O)N[C@@H](C)c3ccccc3)c3cnn(C(C)C)c3n2)c1 [Compound 44] | 189 nM
CNCCN(C)Cc1cccc(-c2cc(Oc3ccccc3)c3cnn(C(C)C)c3n2)c1 [Compound 45] | 194 nM
CC(C)n1cnc2cc(-c3ccc(CN(C)CCN)cc3)ccc21 [Compound 46] | 196 nM
CNCCN(C)Cc1cccc(-c2cc(C(=O)NCc3c(F)cccc3F)c3cnn(C(C)C)c3n2)c1 [Compound 47] | 209 nM
CCC(=O)c1cc(-c2cccc(CN(C)CCNC)c2)nc2c1cnn2C(C)C [Compound 128] | 808 nM
CS(=O)(=O)N1CCC(Cn2cnc3ccc(-c4ccc(CNCCN)cc4)cc32)CC1 [Compound 129] | 821 nM
CNCCN(C)Cc1cc(-c2cc(C(=O)NC3CCOCC3)c3cnn(C(C)C)c3n2)ccc1F [Compound 130] | 833 nM
Cc1ccc(-n2cnc3cc(-c4ccc(CNCCN)cc4)ccc32)cc1 [Compound 131] | 841 nM
COc1ccc(Cn2cnc3ccc(-c4ccc(CNCCN)cc4)cc32)cc1 [Compound 132] | 848 nM
CNCCN(C)Cc1cccc(-c2cc(NC(=O)NC3CCOCC3)c3cnn(C(C)C)c3n2)c1 [Compound 133] | 866 nM
CC(C)n1ncc2c(C(=O)NCc3ccccc3)cc(-c3cccc(CNCCN)c3)cc21 [Compound 134] | 925 nM
COc1cccc(Cc2nc3ccc(-c4ccc(CNCCN)cc4)cc3n2C(C)C)c1 [Compound 135] | 932 nM
CNCCN(C)Cc1cccc(-c2cc(C(=O)NCc3cnn(C)c3C)c3cnn(C(C)C)c3n2)c1 [Compound 137] | 985 nM
CNCCN(C)Cc1cccc(-c2cc(NC(=O)NC)c3cnn(C(C)C)c3n2)c1 [Compound 138] | 1040 nM
CNCCN(C)Cc1cccc(-c2cc(NS(=O)(=O)N(C)C)c3cnn(C(C)C)c3n2)c1 [Compound 139] | 1050 nM
Cc1cc2cc(-c3ccc(CNCCN)cc3)ccc2[nH]1 [Compound 141] | 1110 nM
Cc1cccc(CCn2cnc3ccc(-c4ccc(CNCCN)cc4)cc32)c1 [Compound 143] | 1110 nM

Further lines, results first:

IC50 | SMILES
19.3 nM | CN(CCN)Cc1cccc(-c2nc(NCc3nccs3)c3cnn(C4CC4)c3n2)c1 [Compound 1]
51.6 nM | CNCCN(C)Cc1cccc(-c2cc(NC3CC3)c3cnn(C(C)C)c3n2)c1 [Compound 11]
66.2 nM | CC(C)n1cc2c(N)cc(-c3cccc(CN(C)CCN)c3)nc2n1 [Compound 13]
69.7 nM | CNCCN(C)Cc1cccc(-c2nc(NCc3cc(C)nn3C)c3cnn(C4CC4)c3n2)c1 [Compound 17]
72.8 nM | CN(CCN)Cc1cccc(-c2nc(NC3CCOCC3)c3cnn(C(C)(C)C)c3n2)c1 [Compound 18]
85 nM | CNCCN(C)Cc1cccc(-c2cc(Nc3ncc(C)s3)c3cnn(C(C)C)c3n2)c1 [Compound 20]
89 nM | CNCCN(C)Cc1cccc(-c2cc(C(=O)NCC3CCOCC3)c3cnn(C4CCC4)c3n2)c1 [Compound 21]
105 nM | CC(C)n1ncc2c(C(=O)NCc3ccc(F)cc3)cc(-c3cccc(CN(C)CCN)c3)nc21 [Compound 25]
106 nM | CNCCN(C)Cc1cccc(-c2cc(C(=O)NCC3CCOCC3)c3cnn(C4CC4)c3n2)c1 [Compound 26]
106 nM | CNCCN(C)Cc1cccc(-c2nc(NC3CCOCC3)c3cnn(C(C)(C)C)c3n2)c1 [Compound 27, N1-(3-(1-tert-butyl-4-(tetrahydro-2H-pyran-4-ylamino)-1H-pyrazolo[3,4-d]pyrimidin-6-yl)benzyl)-N1,N2-dimethylethane-1,2-diamine]
114 nM | CNCCN(C)Cc1cccc(-c2cc(C(=O)NC3CCOCC3)c3cnn(C4CCC4)c3n2)c1 [Compound 29]
128 nM | CC(C)n1ncc2c(C(=O)N(C)Cc3ccccc3)cc(-c3cccc(CN(C)CCN)c3)nc21 [Compound 31]
154 nM | CC(C)n1ncc2c(C(=O)NCc3c(F)cccc3F)cc(-c3cccc(CN(C)CCN)c3)nc21 [Compound 37]
164 nM | CNCCN(C)Cc1cccc(-c2cnc3c(c2)c(Br)nn3CC2CCOCC2)c1 [Compound 39]
168 nM | CN(CCN)Cc1cccc(-c2nc(NCc3cccnc3)c3cnn(C4CC4)c3n2)c1 [Compound 40]
172 nM | CC(C)n1ncc2c(NC3CC3)cc(-c3cccc(CN(C)CCN)c3)nc21 [Compound 41]
188 nM | CC(C)n1ncc2c(C(=O)N3CCCCC3)cc(-c3cccc(CN(C)CCN)c3)nc21 [Compound 43]
783 nM | CNC(=O)Nc1cc(-c2cccc(CN(C)CCN)c2)nc2c1cnn2C(C)C [Compound 126]
934 nM | CC(C)n1ncc2c(C(=O)N[C@@H](C)c3ccccc3)cc(-c3cccc(CN(C)CCN)c3)nc21 [Compound 136]
1110 nM | CN(CCN)Cc1cccc(-c2cc(C(=O)NC3CCOCC3)c3cnn(C4CC4)c3n2)c1 [Compound 142]
1200 nM | CN(CCN)Cc1cccc(-c2cc(C(=O)NC3CCOCC3)c3cnn(CC(F)(F)F)c3n2)c1 [Compound 144]
